Laboratory results: patent publication US20230003721A1, “MITOTHERAPEUTICS FOR THE TREATMENT OF BRAIN DISORDERS” (The University of Florida Research Foundation, Inc., priority 2019, published 2023)
Counter-ions that a name gives are not always drawn.

Tests used:
[1] = test system: primary neurons; experiment: CellTiter-Glo luminescence-based ATP assay; type: cell-based, mouse; conditions: for ATP: ATP orthogonal screen, 24 h; for EC50 / Emax: Mus musculus, Primary neuron, dose response; for EC50: 15 concentrations from 6 nM to 100 uM; for Emax: maximal percent increase relative to in-plate DMSO controls, read-out: ATP (Effect-size)
Description: Measurement of ATP production. The total amount of ATP produced by cultured primary neurons was measured by CellTiter-Glo Luminescent Cell Viability Assay (Promega). A recombinant luciferase enzyme catalyzed the mono-oxygenation of luciferin while hydrolyzing ATP produced by the cells and emitting light. We followed the manufacturer's protocol with primary neurons on DIV14.
(§1) A CLARIOstar (BMG LABTECH) microplate reader was used to measure fluorescence of TMRM and luminescence produced from the ATP.
(§2) Mitochondrial membrane potential (Δψm) and luminescence-based ATP assays. […] Changes of ΔΨm in each well were monitored using the mitochondrial-specific, fluorescent dye TMRM (tetramethyl rhodamine, methyl ester; Molecular Probes) and measured using a CLARIOstar plate reader. […] This concentration was used throughout our experiments. […] Wells in columns 1 and 24 were not loaded with TMRM; these served to measure background signal which was subtracted from the wells to which TMRM was added. To measure the total ATP levels in neurons we utilized the CellTiter-Glo® luminescence-based ATP assay (Promega). DIV13 primary neurons were cultured for 24 h with either DMSO carrier or compound treatment, followed by removing 55 μl culture medium from each well. Plates were maintained at room temperature for 25 m, and 25 μl of CellTiter-Glo® Reagent with the substrate luciferin was then added to each well (Promega). Plates were covered with aluminum foil and shaken vigorously on an orbital shaker for 10 m at 200 rpm and maintained at room temperature for an additional 2 m in dark before being read with the plate reader set to the luminescence mode.
Compound library and hit picking rules. We screened 2400 compounds from the MicroSource Spectrum library. […] FIGS. 13A-13E provide details of the assays used from which hit picking rules were made. In essence, the average fluorescence for each compound in the TMRM assay was determined and compared to the average fluorescence for compounds in the population on each assay plate to produce a Z-score. The Z-scores for each individual compound assayed across the four replicate plates was then averaged. Because of significant well location effects (outer rows) on each assay plate (FIG. 13G), we selected primary hits as enhancing well fluorescence above the μplate by 3σplate for inner row wells (rows C-N, columns 3-22), and by 2.5σplate for outer row wells (rows A, B, O, P; columns 3-22) (FIG. 14C-D). […] All orthogonal assays employed inner wells of the 384-well plates.

[2] = test system: primary neurons; experiment: TMRM fluorescence assay of inner mitochondrial membrane potential (ΔΨm); conditions: for TMRM Primary: primary screen; for TMRM Primary / hit in TMRM primary screen when assayed at 4 h: 12.5 μM; for TMRM Primary / TMRM Rescreen: 24 h; for Emax / EC50: Mus musculus, Primary neuron; for Emax: read-out: TMRM (Effect-size); for EC50: read-out: TMRM-EC50
Description: Mitochondrial dyes. To assay the electrochemical potential across the inner mitochondrial membrane of cultured cells, we used the cell-permeant dye tetramethylrhodamine methyl ester (TMRM). For co-localization studies with Mt-GFP, TMRM was used at 20 nM on DIV14 and incubated for 30 min prior to imaging. For the orthogonal screen of compounds, TMRM was added to primary neurons on DIV13 at 10 nM, one hr prior to pintooling selected compounds, and incubated for 24 hr. Cells were washed 2× with pre-warmed fresh feeding media without B27 before measurements with a plate reader.
as §1, §2
Compound library and hit picking rules. We screened 2400 compounds from the MicroSource Spectrum library. […] FIGS. 13A-13E provide details of the assays used from which hit picking rules were made. In essence, the average fluorescence for each compound in the TMRM assay was determined and compared to the average fluorescence for compounds in the population on each assay plate to produce a Z-score. The Z-scores for each individual compound assayed across the four replicate plates was then averaged.

| SMILES | ATP [1] | TMRM Primary [2] | TMRM Rescreen [2] | hit in TMRM primary screen when assayed at 4 h [2] | EC50 [1] | Emax [1] | Emax [2] | EC50 [2] |
| --- | --- | --- | --- | --- | --- | --- | --- | --- |
| CC1=C2C[C@H]3[C@@H](CC=C4C[C@@H](O)CC[C@@]43C)[C@@H]2CC[C@]12O[C@@H]1C[C@H](C)CN[C@H]1[C@H]2C [cyclopamine] | 5.15 Z-scores | 3.74 Z-scores | 8.14 Z-scores | – | – | – | – | – |
| CC(C)c1ccc2c(c1)CC[C@H]1[C@](C)(C(N)=O)CCC[C@]21C [dehydroabietamide] | 4.15 Z-scores | 3.42 Z-scores | 5.12 Z-scores | – | – | – | – | – |
| CC(=O)OCC(=O)[C@H]1CC[C@H]2[C@@H]3CCC4=CC(=O)CC[C@]4(C)[C@H]3CC[C@]12C [desoxycorticosterone acetate] | 3.62 Z-scores | 2.81 Z-scores | 1.08 Z-scores | desoxycorticosterone acetate* | – | – | – | – |
| CC(C)NC[C@@H](O)COc1cccc2ccccc12.Cl [dexpropranolol hydrochloride [R(+)]] | 6.22 Z-scores | 4.37 Z-scores | 4.79 Z-scores | – | – | – | – | – |
| CCCCOc1cc(C(=O)NCCN(CC)CC)c2ccccc2n1 [dibucaine hydrochloride] | 6.22 Z-scores | 3.83 Z-scores | 6.82 Z-scores | – | – | – | – | – |
| CN(C)CCOC(c1ccccc1)c1ccccc1.Cn1c(=O)c2[nH]c(Cl)nc2n(C)c1=O [dimenhydrinate] | 4.94 Z-scores | 3.98 Z-scores | 4.31 Z-scores | – | – | – | – | – |
| O=C(Nc1ccccc1)OCC(CN1CCCCC1)OC(=O)Nc1ccccc1 (centres unmarked) [diperodon hydrochloride] | 8.02 Z-scores | 3.75 Z-scores | 6.07 Z-scores | – | – | – | – | – |
| COc1cc2nc(N3CCN(C(=O)C4COc5ccccc5O4)CC3)nc(N)c2cc1OC (centres unmarked) [doxazosin mesylate] | 4.68 Z-scores | 4.39 Z-scores | 5.94 Z-scores | – | – | – | – | – |
| COc1cccc2c1C(=O)c1c(O)c3c(c(O)c1C2=O)C[C@@](O)(C(=O)CO)C[C@@H]3O[C@H]1C[C@H](N)[C@H](O)[C@H](C)O1 [doxorubicin] | 4.00 Z-scores | 4.02 Z-scores | 5.05 Z-scores | – | – | – | – | – |
| CCN(CC)CCOC(=O)C(c1ccccc1)C1CCCCC1 (centres unmarked) [drofenine hydrochloride] | 4.84 Z-scores | 3.68 Z-scores | 5.96 Z-scores | – | – | – | – | – |
| C[C@]12CC[C@@H]3c4ccc(O)cc4CC[C@H]3[C@@H]1CC[C@@H]2OC(=O)CCC1CCCC1 [estradiol cypionate] | 2.98 Z-scores | 2.59 Z-scores | 4.67 Z-scores | – | – | – | – | – |
| COc1ccc2c(c1)CC[C@@H]1[C@@H]2CC[C@]2(C)[C@@H](O)CC[C@@H]12 [estradiol methyl ether] | 4.80 Z-scores | 3.74 Z-scores | 3.55 Z-scores | – | – | – | – | – |
| CC12CCC3c4ccc(OCc5ccccc5)cc4CCC3C1C[C@@H](O)[C@@H]2O (some centres unmarked) [estriol benzyl ether] | 2.03 Z-scores | 3.17 Z-scores | 6.67 Z-scores | – | – | – | – | – |
| CC(=O)Oc1ccc2c(c1)CCC1C2CC[C@]2(C)C(=O)CCC12 (some centres unmarked) [estrone acetate] | 3.36 Z-scores | 3.26 Z-scores | 5.89 Z-scores | – | – | – | – | – |
| C=CCc1ccc(O)c(OC)c1 [eugenol] | 4.39 Z-scores | 4.17 Z-scores | 3.10 Z-scores | eugenol* | – | – | – | – |
| CCOC(=O)C1=C(C)NC(C)=C(C(=O)OC)C1c1cccc(Cl)c1Cl (centres unmarked) [felodipine] | 5.08 Z-scores | 3.80 Z-scores | 2.41 Z-scores | – | – | – | – | – |
| C[C@]12CC[C@@H]3c4ccc(O)cc4C[C@@H](CCCCCCCCC[S+]([O-])CCCC(F)(F)C(F)(F)F)[C@H]3[C@@H]1CC[C@@H]2O (some centres unmarked) [fulvestrant] | 4.27 Z-scores | 3.31 Z-scores | 6.27 Z-scores | – | – | – | – | – |

| SMILES | ATP [1] | TMRM Primary [2] | TMRM Rescreen [2] | hit in TMRM primary screen when assayed at 4 h [2] | EC50 [1] | Emax [1] | Emax [2] | EC50 [2] |
| --- | --- | --- | --- | --- | --- | --- | --- | --- |
| COc1cc(O)c2c(=O)cc(C)oc2c1CC=C(C)C [heteropeucenin, methyl ether] | 5.92 Z-scores | 3.45 Z-scores | 4.33 Z-scores | – | – | – | – | – |
| CCN(CC)CCNc1ccc(CO)c2sc3ccccc3c(=O)c12 [hycanthone] | 4.61 Z-scores | 4.40 Z-scores | 5.48 Z-scores | – | – | – | – | – |
| OCCOCCN1CCN(C(c2ccccc2)c2ccc(Cl)cc2)CC1 (centres unmarked) [hydroxyzine pamoate] | 5.22 Z-scores | 3.15 Z-scores | 6.04 Z-scores | – | – | – | – | – |
| O=C([O-])Cc1c[nH]cn1.[Na+] [imidazol-4-ylacetic acid sodium salt] | 4.61 Z-scores | 3.58 Z-scores | 4.56 Z-scores | imidazol-4-ylacetic acid sodium salt* | – | – | – | – |
| CN(C)CCCN1c2ccccc2CCc2ccccc21 [imipramine hydrochloride] | 5.10 Z-scores | 3.31 Z-scores | 0.91 Z-scores | – | – | – | – | – |
| OCc1c[nH]c2ccccc12 [indole-3-carbinol] | 6.52 Z-scores | 3.15 Z-scores | 6.27 Z-scores | – | – | – | – | – |
| O=C(c1ccc(F)cc1)C1CCN(CCn2c(=O)[nH]c3ccccc3c2=O)CC1 [ketanserin tartrate] | 5.68 Z-scores | 5.62 Z-scores | 5.26 Z-scores | – | 160 nM | 19.1% | 30% | 1300 nM |
| CN1CCC(=C2c3ccccc3CC(=O)c3sccc32)CC1 [ketotifen fumarate] | 5.58 Z-scores | 3.91 Z-scores | 3.98 Z-scores | ketotifen fumarate* | – | – | – | – |
| C=C[C@@](C)(O)CC[C@H]1C(=C)C[C@H](OC(C)=O)[C@H]2C(C)(C)CCC[C@]12C [larixol acetate] | 2.67 Z-scores | 3.96 Z-scores | 5.67 Z-scores | – | – | – | – | – |
| CCN(CC)C(=O)[C@@]1(c2ccccc2)C[C@H]1CN [levomilnacipran hydrochloride] | 3.87 Z-scores | 3.26 Z-scores | 3.53 Z-scores | – | – | – | – | – |
| CCN(CC)CC(=O)Nc1c(C)cccc1C [lidocaine hydrochloride] | 6.98 Z-scores | 3.06 Z-scores | 4.69 Z-scores | – | 110 nM | 15.8% | 17.4% | 1890 nM |
| CN1[C@@H](CC(=O)c2ccccc2)CCC[C@H]1C[C@H](O)c1ccccc1 [lobeline hydrochloride] | 3.67 Z-scores | 6.62 Z-scores | 6.75 Z-scores | – | – | – | – | – |
| CC(=O)O[C@]1(C(C)=O)CC[C@H]2[C@@H]3C[C@H](C)C4=CC(=O)CC[C@]4(C)[C@H]3CC[C@@]21C [medroxyprogesterone acetate] | 2.64 Z-scores | 3.66 Z-scores | 3.67 Z-scores | medroxyprogesterone acetate* | – | – | – | – |
| OC(c1cc(C(F)(F)F)nc2c(C(F)(F)F)cccc12)C1CCCCN1 (centres unmarked) [mefloquine] | 5.09 Z-scores | 3.75 Z-scores | 5.54 Z-scores | – | – | – | – | – |
| CCCNC(C)(C)COC(=O)c1ccccc1 [meprylcaine hydrochloride] | 6.05 Z-scores | 3.56 Z-scores | 5.91 Z-scores | – | – | – | – | – |
| CCN(CC)CCOC(=O)C(Cc1cccc2ccccc12)CC1CCCO1 (centres unmarked) [nafronyl oxalate] | 5.17 Z-scores | 4.08 Z-scores | 5.89 Z-scores | nafronyl oxalate* | – | – | – | – |
